Results on one compound are retold here after patent publication US6740680B1, “Pharmaceutical compositions to tetrac and methods of use thereof” (Becton Pharma, Inc., priority 1999, dated 2004).

For one data set, the system named is β-MHC mRNA. Description: Northern blot, β-MHC mRNA in heart. It is filed as in vivo, rat. As to the method:
(§1) Seventy-nine male SIVZ rats were purchased from the breeder (Institut für Labortierkunde des Universität Zürich, Zürich, Switzerland). They were rendered hypothyroid by a single injection of [^131I]Na (100 μCi/rat) and before and throughout the experiment 0.02% 2-mercapto-1-methylimidazol (MMI) was added to drinking water. In order to have an euthyroid control group of similar weight and identical age, 10 rats received only MMI in the drinking water and 2 weeks before implanting the minipumps, MMI was withdrawn. Osmotic minipumps (secretion rate 0.25 μl/hour, duration 14 days) were implanted intraperitoneally (i.p.) 2 months after the injection of [^131I]Na. The minipumps were filled with T4 or Tetrac dissolved in 0.05 N NaOH, 2% BSA and 100,000 cpm [^125I]T4 or [^125I]Tetrac as control of their secretion rates. The infusion lasted 13 days. 0, 1.5, 4.5, 13.5 and 40.5 nmol Tetrac/day/100 g or 0.5, 1.5, 4.5 and 13.5 nmol T4/day/100 g bodyweight (BW) (n=4/dose) were infused. An euthyroid control group was included. The animals were weighed every 2 days. Rats were sacrificed by decapitation and blood was collected and stored at −200° C. until use. Tissues (liver, heart, brown adipose tissue, cerebral cortex and pituitary) were removed rapidly, frozen in liquid nitrogen and stored at −700° C. until use.
(§2) Total RNA extraction and Northern Blot hybridization Total RNA was extracted with the method of Chomczynski and Sacchi (Chomczynski, P. and Sacchi, N. Anal. Biochem. (1987) 162: 156-159). […]
(§3) The amount of labeled mRNA was quantified by scanning laser densitometry (Phosphorimager, Molecular Dynamics; Sunnyvale, USA). Variations in RNA loading and membrane transfer were corrected by densitometric quantification of a negative photograph of 28S and 18S ribosomal RNA bands from ethidium bromide stained RNA gels. […]

Data set [1] concerns monodeiodinase type 1 mRNA. Description: Northern blot, hepatic monodeiodinase type 1 mRNA. Format: in vivo, rat. The following applies: Liver. As to the method: as §1, §2, §3
The test system of the next data set is SERCA 2a mRNA. Briefly: Northern blot, SERCA 2a mRNA in heart. It is filed as in vivo, rat. As to conditions: FIG. 2b, compared to T4, p<0.001. As to the method:
as §1, with “Rats were sacrificed by decapitation and blood was collected and stored at −200° C. until use. Tissues (liver, heart, brown adipose tissue, cerebral cortex and pituitary) were removed rapidly, frozen in liquid nitrogen and stored at −700° C. until use.” left out
as §3

For another data set, the system named is Monodeiodinase type 1. Description: Monodeiodinase type 1 activity in liver and heart homogenates of infused rats. Format: in vivo, rat. As to the method: as §1
Monodeiodinase type 1 and 2 activities. Monodeiodinase type 1 and type 2 activities were determined in tissue homogenates by measuring the release of radioiodide from [^125I]rT3 according to the method of Leonard and Rosenberg (Leonard, J. L. et al. Endocrinology (1980) 106: 444-451).
(§4) Monodeiodinase type 1 activity was measured in liver homogenates using 1 μM rT3 and 1 mM DTT with 10 min of incubation, whereas for heart, 0.01 μM rT3 and 10 mM DTT with 1 hour of incubation. Monodeiodinase type 2 activity was measured in brown adipose tissue (BAT) and cerebral cortex using 1 nM rT3, 10 mM DTT and 1 mM propylthiouracil (PTU) with 1 hour of incubation. Protein concentrations were measured by the method of Bradford (Bio-Rad Laboratories GmbH, Munich, Germany) with bovine gammaglobulin as the protein standard. In order to study the effect of circulating Tetrac on the enzyme activities, 2 rats were injected intraperitoneally with 10 μCi ^125I Tetrac and killed 6 hours later. The tissue homogenates were extracted with 3 volumes of ethanol-NH3 (97:3). After 10 minutes centrifugation at 15,000 g, the supernatant was vacuum dried and applied to TLC (Merck 254, Toluol, acetic acid, water: 2:2:1). In order to calculate the tissue concentrations, the highest serum Tetrac levels were used (406 pmol/ml). The calculated tissue concentrations were: liver: 1.9, heart: 2.29 and brain cortex: 0.47 fluol Tetrac/μg protein.

The test system of another data set is TSH. Briefly: Suppression of TSH by Tetrac in humans.
Data set [2] is described as follows: Tissue concentrations of Tetrac after 125I Tetrac injection. It is filed as in vivo, rat. As to conditions: for Calculated tissue concentration of Tetrac: calculated with highest serum Tetrac level (406 pmol/ml). As to the method:
as §4

Data set [3] deals with monodeiodinase type 2 mRNA. Description: Northern blot, monodeiodinase type 2 mRNA in pituitary. Format: in vivo, rat. As to conditions: FIG. 5b, compared with T4, p=0.001. As to the method:
as §1, with “Rats were sacrificed by decapitation and blood was collected and stored at −200° C. until use. Tissues (liver, heart, brown adipose tissue, cerebral cortex and pituitary) were removed rapidly, frozen in liquid nitrogen and stored at −700° C. until use.” left out
as §3

For the next data set, the system named is hypothyroid rats. Briefly: Heart weight and heart/body weight in hypothyroid rats infused with Tetrac or T4. Format: in vivo, rat. The following applies: for Heart / Heart/BW (%): hypothyroid rats, mean ± SEM; for Heart: continuous minipump infusion. As to the method: as §1
The mark [4] stands for this setting: infused rats, adjusted group mean at the mean Ln (TSH) concentration.

As for `O=C(O)Cc1cc(I)c(Oc2cc(I)c(O)c(I)c2)c(I)c1` [Tetrac, 3,3′,5,5′-tetraiodothyroacetic acid], in the data set with β-MHC mRNA, the “β-MHC mRNA, Tetrac/T4 (activity of Tetrac in % of T4)” value turned out to be 66%. The “β-MHC mRNA, adjusted mean” value in the data set with β-MHC mRNA (setting [4]) is reported as 328 arbitrary units. Further, the “Residual Monodeiodinase type 1 mRNA, Tetrac/T4 (activity of Tetrac in % of T4)” value in data set [1] (at equal serum TSH concentration) stood at 49%. For the same compound, in data set [1] (setting [4]), the “Residual Monodeiodinase type 1 mRNA, adjusted mean” value stood at 2.48 arbitrary units. For the same compound, in the data set with SERCA 2a mRNA, the “SERCA 2a mRNA levels, response to increasing doses (in words)” value was “weak response”. Besides, in the data set with Monodeiodinase type 1 (Liver, at equal serum TSH concentration), the “Residual Monodeiodinase type 1 activity, Tetrac/T4 (activity of Tetrac in % of T4)” value was 59%. Also, the “Residual Monodeiodinase type 1 activity, adjusted mean” value with Monodeiodinase type 1 (Liver, infused rats, adjusted group mean at the mean Ln (TSH) concentration) worked out at 106. The “Cardiac monodeiodinase type 1 activity, response to increasing doses (in words)” value in the data set on Monodeiodinase type 1 (heart, FIG. 2a, compared to T4, p<0.001) is on record as “weak response”. Also, the TSH after treatment in the data set on TSH (one patient withdrawn from T4, Tetrac 2100 μg/day, after 21 days) is recorded as 6.3 mU/L. In addition, in the data set with TSH (same patient, start of Tetrac treatment), the “TSH before treatment (after T4 withdrawal)” value was 151.0 mU/L. Further, the “Concentration of Tetrac in brain cortex homogenates” value in data set [2] (brain cortex homogenates) was “less than 1 fmol/μg protein”. The “Calculated tissue concentration of Tetrac” value is 0.47 fluol Tetrac/μg protein in data set [2] (brain cortex), 2.29 fluol Tetrac/μg protein in data set [2] (heart) and 1.9 fluol Tetrac/μg protein in data set [2] (liver). In data set [3], the “Inhibition of the mRNA levels of monodeiodinase type 2 (in words)” value was “clearly less efficient”. Also, in the data set with hypothyroid rats (compared with T4, p<0.01), the “Increase of heart weight relative to body weight with increasing infusion rates (in words)” value is “less efficient”. The “Heart” value in the data set on hypothyroid rats (1.5 nmol/day/100 g BW) is listed as 0.76 ± 0.02 g; in the data set with hypothyroid rats (4.5 nmol/day/100 g BW), 0.83 ± 0.04 g; with hypothyroid rats (13.5 nmol/day/100 g BW) it was 0.94 ± 0.03 g; in the data set on hypothyroid rats (40.5 nmol/day/100 g BW), 0.98 ± 0.06 g. Further, the “Heart/BW (%)” value is 0.31 ± 0.01% in the data set on hypothyroid rats (infusion 1.5 nmol/day/100 g BW), 0.33 ± 0.02% with hypothyroid rats (infusion 4.5 nmol/day/100 g BW), 0.36 ± 0.01% in the data set on hypothyroid rats (infusion 13.5 nmol/day/100 g BW) and 0.39 ± 0.02% with hypothyroid rats (infusion 40.5 nmol/day/100 g BW).
